Experimental data: publication doi:10.1101/2023.07.11.548539v1, “A side-by-side comparison of peptide-delivered antisense antibiotics employing different nucleotide mimics” (bioRxiv, 2023)
Oligonucleotides are written 5' to 3', each unit as a sugar letter and its base; * is a phosphorothioate linkage, no mark a phosphodiester; rarer units and linkages stand in square brackets, end groups in braces. Plain capitals give the bases only. d = 2'-deoxy (DNA)

Assays:
Salmonella periplasm = experiment: MALDI-TOF analysis of ASO-peptide conjugate uptake; format: cell-based; set-up: key: -: Effect strength is represented by additional (+) signs.; Effect strength is represented by additional (+) signs.; ++: Effect strength is represented by additional (+) signs.; +++: Effect strength is represented by additional (+) signs; conditions: summary grade; ASO conjugated to the carrier peptide
Protocol: The experiments were performed by modifying previously published protocols ([29]). From an overnight culture of Salmonella, a second culture was inoculated (1:100) and grown to OD600 of 0.5 (corresponding to ∼2×10^8 cfu/mL). These bacterial cells was washed twice in MHB and resuspended in 95 µl of MHB with an additional incubation at 37°C for 5-10 min. Sterile ASO-peptide conjugates were prepared at concentrations of 200 µM. 5 µl of the 200 µM working solutions were added to 95 µl of bacteria in culture media, leading to a final concentration of the compounds of 10 µM. 5 µl of H2O was added as a negative control. The tubes were incubated at 37°C for 15 min with shaking at 300 rpm. Subsequently, they were centrifuged at 8,000 x g for 5 min at 4 °C. The supernatant was aspirated and the pellet was washed with 0.01 M Tris-HCl before being resuspended in 200 µl of 0.01M Tris-HCl containing 0.5 M Sucrose, 150 µg/ml lysozyme, 10 mM EDTA and incubated at 37 °C overnight. These tubes were then centrifuged at 2,000 x g at 4°C for 10 min. The supernatant obtained represents the periplasm. The pellet containing spheroplasts was gently washed with 0.01 M Tris-HCl containing 0.5 M Sucrose and resuspended in 20 ml of B-PER™ Bacterial Protein Extraction Reagent (Thermo Fischer Scientific) for 1 h. After this, the spheroplasts were subjected to sonication (20kHz for 2×10 s), incubated on ice for 5 min and centrifuged at 20,000 x g for 30 min at 4 °C. The supernatant represents the cytoplasm. Both the periplasm and cytoplasm fragments were then mixed with 2, 6-Dihydroxyacetophenone (DHAP) in ACN 1:1, spotted on a MALDI plate and analyzed for MALDI-TOF-MS in a Bruker DaltonicsUltrafleXtreme Instrument. The experiment was performed two times and data of one representative experiment are shown.

[1] = test system: outer membrane of Salmonella; experiment: Outer membrane permeabilization (NPN fluorescence); format: cell-based, Salmonella enterica serovar Typhimurium strain SL1344; set-up: key to Outer-membrane permeation: -: Effect strength is represented by additional (+) signs.; Effect strength is represented by additional (+) signs.; ++: Effect strength is represented by additional (+) signs.; +++: Effect strength is represented by additional (+) signs; conditions: for Outer-membrane permeation: summary grade, ASO conjugated to the carrier peptide; for Outer membrane permeabilization, NPN fluorescence (in words): test compounds 10 µM final, added at 14 min, NPN 10 µM, 5 mM HEPES, 5 mM glucose pH 7.2, CTAB and Polymyxin B positive controls
Protocol: The experiments were performed by modifying previously published protocols ([48]–[50]). Salmonella (WT SL1344, JVS-1574) were grown overnight in 4 ml MHB medium at 37 °C (with shaking at 220 rpm). Then the culture was diluted 1:100 and grown until OD 0.5 (∼2×10^8 cfu/mL). This culture was harvested and washed two times with 5mM HEPES and further diluted to OD 0.2 in 5 mM HEPES supplemented with 5 mM Glucose (pH 7.2). These cells were then incubated with N-phenylnaphthylamine (NPN) (Sigma, USA) at a final concentration of 10 µM. 190 µl of NPN treated cells were transferred into 96-well back plates with transparent bottom and fluorescence (excitation = 350 nm, emission = 420 nm) was recorded for 60 min (reading was performed every minute) using a Synergy H1 plate reader (Biotek). On the fourteenth minute, 10 µl of the test compounds (10 µM final concentration) was added into the wells. CTAB (Sigma, USA) 200 µM or Polymyxin B (Sigma, USA) 10 µg/ml (final concentration of 0.5 µg/ml) were used as positive controls, while water was used as negative control. The fluorescence of the wells were monitored using the same settings as above. The experiment was performed three times and Figure 10 is based on a single representative experiment.

Substance | Uptake inside bacteria (MS) (Salmonella periplasm) | Outer-membrane permeation [1] | Outer membrane permeabilization, NPN fluorescence (in words) [1]
DNA-PTO: 10mer phosphorothioate-modified DNA antisense oligomer, sequence CTCATACTCT, targeting acpP (antisense dC*dT*dC*dA*dT*dA*dC*dT*dC*dT) | - | - | 
LNA: 10mer 2'-4'-locked RNA antisense oligomer, sequence CTCATACTCT, targeting acpP (all LNA, backbone and methylation of C not given here) | - | - | 
PMO: 10mer phosphorodiamidate morpholino antisense oligomer, sequence CTCATACTCT, targeting acpP (all phosphorodiamidate morpholino (PMO)) |  | ++ | this ability is retained
PNA: 10mer peptide nucleic acid antisense oligomer, sequence CTCATACTCT, targeting acpP (all peptide nucleic acid (PNA)) |  | ++ | this ability is retained
RNA-F: 10mer 2'-fluorinated RNA antisense oligomer, sequence CTCATACTCT, targeting acpP (all 2'-fluoro, backbone and T or U not given here) | - | - | 
RNA-MOE: 10mer 2'-methoxyethylated RNA antisense oligomer, sequence CTCATACTCT, targeting acpP (all 2'-MOE, backbone and methylation of C not given here) | - | - | 
RNA-OMe: 10mer 2'-methylated RNA antisense oligomer, sequence CTCATACTCT, targeting acpP (all 2'-O-methyl, backbone and T or U not given here) | - | - | 
